Experimental data as given in US9353075B2, “Disubstituted beta-lactones as inhibitors of N-acylethanolamine acid amidase (NAAA)” (The Regents of the University of California, priority 2011, dated 2016).
pIC50: −log10 of the molar value. “Also recorded” adds a separate entry of the source.

How the values were obtained:
h-NAAA = h-NAAA (Homo sapiens (Human), UniProt Q02083); assay: Fluorogenic h-NAAA assay; type: biochemical
Experimental: (§1) The assay was run in Optiplate 96-wells black plates, in a total reaction volume of 200 mL. NAAA protein preparations (4 ng) were pre-incubated for 10 minutes with various concentrations of test compounds or vehicle control (5% DMSO) in 100 mM citrate/phosphate buffer (pH 4.5) containing 3.0 mM DTT, 0.1% Triton X-100, 0.05% BSA, 150 mM NaCl. N-(4-methyl-2-oxo-chromen-7-yl)-hexadecanamide was used as a substrate (5.0 μM) and the reaction carried over for 30 minutes at 37° C. Fluorescence in the samples was quantified in a Perkin Elmer Envision plate reader using an excitation wavelength of 360 nm and emission 460 nm. IC50 values were calculated by non-linear regression analysis of log [concentration]/inhibition curves using GraphPad Prism 5 (GraphPad Software Inc., CA—USA) applying a standard slope curve fitting.
as §1, with “μL.” for “mL.”, “preparation (4.0 μg) was” for “preparations (4 ng) were”, “min” for “minutes”, “The” for “Fluorescence in the”, “were then read” for “was quantified”

DNFB-induced dermatitis = assay: DNFB contact dermatitis in mice, ear thickness; type: in vivo, mouse
Experimental: 2,4-dinitrofluorobenzene (DNFB) (Sigma-Aldrich, Italy) was dissolved in acetone. On day 1 and 2, mice (CD1, 25-30 g, Charles River, Calco, Italy) were sensitized on the skin of the abdomen with hapten (20 μL of 0.5% DNFB). After 5 days, on day 7, mice were challenged with hapten (20 μL of 0.2% DNFB) in the earlobe and treated with drugs to be tested. Control group received the vehicle used to dissolve drugs. Mice (five per group) were placed in a plastic cage. On day 8, ear thickness was determined after challenge using a caliper. Results are expressed as absolute ear thickness.
Fresh drug suspensions of compound 6 were prepared immediately before use in a vehicle consisting of petrolatum plus 5% lauric acid and given in a volume of 20 μL/mouse. Mice were treated with different concentrations of compound 6 or vehicle together with DNFB challenge on […].
Compound 6 and the reported β-lactone NAAA inhibitor (S)-OOPP (Solorzano et al., Proceedings of the National Academy of Science USA 2009, 106, 20966-20971; Solorzano et al., Journal of Medicinal Chemistry 2010, 53, 5770-5781) were tested in this model for their contact sensitivity response. Fresh drug solutions of (S)-OOPP and compound 6 were prepared immediately before use in polyethylene glycol 400 (PEG 400) and given in a volume of 20 μL/ear. Mice were treated with different concentrations of (S)-OOPP, 0.1% compound 6 or vehicle each day for 7 days. Ear thickness was determined on day 0 and every day before challenge using a caliper. Results are expressed as absolute ear thickness.
(§2) The methods included the following. Dermatitis was produced in mice using 2-4 dinitrofluorobenzene (DNFB) as described by Buckley and Nijkamp (1994), Am J Respir Grit Care Med 149:400-7. Mice were sensitized on two consecutive days with a 0.5% DNFB solution applied to the shaved abdomen. At day 8, the ears were challenged with a 0.2% DNFB solution. Ear thickness was determined by using a micrometer. Scratching was evaluated as number of episodes per 60 minutes period. Data were analysed by ANOVA followed by the Bonferroni's test. See also Hargreaves K, et al (1988), Pain 32: 77-88 for related information.

[1] = test system: carrageenan-induced paw edema and hyperalgesia; assay: Carrageenan-induced inflammatory responses in mice; type: in vivo, mouse
Experimental: The Methods include the following: Carragenan (1%) was injected into the left hind paw of Swiss albino mice. Paw edema was measured using a plethysmomether. Cutaneous hyperalgesia (thermal) was assesed by the plantar test (see Hargreaves K, et a 1 (1988), Pain 32: 77-88). Compound 6 was administered topically.

DNFB-induced scratching = DNFB-induced scratching in mice; type: in vivo, mouse; conditions: topical, single dose
Experimental: as §2
The methods include the following. Itching in mice was induced with DNFB as previously described. Additional studies were done with 48/80 model (an inducer of mast cell degranulation). 48/80 was given subcutaneously (30 mg per kg). Data were analysed by ANOVA followed by Bonferroni's test for multiple comparisons.

[2] = established DNFB-induced ear edema
[3] = repeated dosing, 8 days before DNFB challenge
[4] = compound 6 30% topical, antagonists 1 μg/paw intraplantar

Sequence of h-NAAA (Q02083 29-359): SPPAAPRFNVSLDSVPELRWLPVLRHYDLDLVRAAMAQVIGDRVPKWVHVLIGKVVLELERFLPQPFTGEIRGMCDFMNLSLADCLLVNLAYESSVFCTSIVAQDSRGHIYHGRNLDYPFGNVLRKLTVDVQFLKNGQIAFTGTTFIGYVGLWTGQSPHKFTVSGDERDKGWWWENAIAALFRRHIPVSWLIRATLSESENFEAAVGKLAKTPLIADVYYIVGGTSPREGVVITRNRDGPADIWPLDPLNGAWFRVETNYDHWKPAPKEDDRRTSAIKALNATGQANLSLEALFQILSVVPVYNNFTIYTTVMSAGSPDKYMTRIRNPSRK

pIC50 (h-NAAA): 7.85
Compound: C[C@@H]1OC(=O)[C@@H]1NC(=O)OCCCCCc1ccccc1 [Example 6, 5-phenylpentyl-[(2S,3R)-2-methyl-4-oxooxetan-3-yl]-carbamate]
Doses of full efficacy, single dosing protocol (DNFB-induced dermatitis; [2]): 10-30%
Effective dose-range, repeated dosing protocol (DNFB-induced dermatitis; [2]): 0.01-1%
Time of administration to full efficacy, repeated dosing (DNFB-induced dermatitis; [2]): 3 days
Ear swelling 24 h after DNFB challenge (DNFB-induced dermatitis; mice, 1-30% w/w suspension in petrolatum plus 5% lauric acid): dose-dependently inhibited ear swelling
Contact sensitivity response (ear swelling) (DNFB-induced dermatitis; mice, PEG 400 solution, each day for 7 days, (S)-OOPP 0.1-10% w/v, compound 6 0.1%): significant decrease in ear swelling
Established DNFB-induced ear edema (therapeutic effect), repeated dosing (DNFB-induced dermatitis; mice, topical, repeated dosing): reverses ear thickness increase; also recorded: reverses established DNFB-induced ear edema
Established DNFB-induced ear thickness increase, single dosing (DNFB-induced dermatitis; mice, topical, single administration): reverses ear thickness increase; also recorded: efficacy is also noted
Doses of complete efficacy, prophylactic protocol (DNFB-induced dermatitis; [3]): 0.1-1%
Prevention of DNFB-induced ear edema (prophylactic effect) (DNFB-induced dermatitis; [3]): prevents the development of DNFB-induced symptoms; also recorded: prevents DNFB-induced increased ear edema
Anti-inflammatory effect on cutaneous hyperalgesia with receptor antagonists [1, 4]: blocked by PPAR-α antagonists, but not by CB1 or CB2 receptor antagonists
Anti-inflammatory effect on paw edema with receptor antagonists [1, 4]: blocked by PPAR-α antagonists, but not by CB1 or CB2 cannabinoid receptor antagonists
Carrageenan-induced paw edema ([1]; mice, topical): marked anti-inflammatory
Carrageenan-induced hyperalgesia ([1]; mice, topical, 90 min after carrageenan): dose-dependently reduces carrageenan-induced hyperalgesia; also recorded: anti-hyperalgesic effects
Anti-inflammatory effects on paw edema and cutaneous hyperalgesia in mice lacking PPAR-α ([1]; topical, 90 min after carrageenan): absent in mice lacking PPAR-α
DNFB-induced scratching (DNFB-induced scratching): prevents DNFB-induced scratching; also recorded: prevented itching
Dose of full effect, DNFB-induced scratching (DNFB-induced scratching): 1-3%
Lowest effective dose, DNFB-induced scratching (DNFB-induced scratching): 0.001%
